Data published in ChEMBL document CHEMBL5465560, “Selectivity Literature for EUbOPEN Chemogenomic Library” (2024).

Tests used:
[1] = biological target: T1, Serine/threonine-protein kinase Chk1 (Homo sapiens) (UniProt O14757); assay: Selectivity interaction (KinomeScan (DiscoverX)) EUB0000655a CHEK1; settings: at 10 µM
T1 sequence (whole entry): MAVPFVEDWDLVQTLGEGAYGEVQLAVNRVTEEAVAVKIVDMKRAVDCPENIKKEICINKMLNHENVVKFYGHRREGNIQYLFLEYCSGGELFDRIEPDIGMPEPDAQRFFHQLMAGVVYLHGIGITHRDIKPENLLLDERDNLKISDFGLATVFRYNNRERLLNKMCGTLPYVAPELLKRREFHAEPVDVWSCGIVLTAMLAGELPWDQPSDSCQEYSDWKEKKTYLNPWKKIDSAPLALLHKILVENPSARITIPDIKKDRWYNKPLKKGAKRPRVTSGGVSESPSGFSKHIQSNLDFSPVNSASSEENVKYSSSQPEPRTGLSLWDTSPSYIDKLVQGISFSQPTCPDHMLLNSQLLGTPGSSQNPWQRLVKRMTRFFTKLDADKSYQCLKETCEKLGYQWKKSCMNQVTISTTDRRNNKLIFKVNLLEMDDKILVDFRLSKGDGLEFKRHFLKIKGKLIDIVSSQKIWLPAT

[2] = biological target: Interferon-induced, double-stranded RNA-activated protein kinase (Homo sapiens) (UniProt P19525); assay: Selectivity interaction (Kinase panel (KiNativ target engagement assay in Jurkat cells)) EUB0001635a EIF2AK2; format: cell-based; settings: Selectivity number of off-targets 0.0, Selectivity number of targets 233.0, Source Knowledge https://www.sciencedirect.com/science/article/pii/S2451945619300674?via%3Dihub, at 1 µM
Interferon-induced, double-stranded RNA-activated protein kinase (Homo sapiens), sequence (P19525 whole entry): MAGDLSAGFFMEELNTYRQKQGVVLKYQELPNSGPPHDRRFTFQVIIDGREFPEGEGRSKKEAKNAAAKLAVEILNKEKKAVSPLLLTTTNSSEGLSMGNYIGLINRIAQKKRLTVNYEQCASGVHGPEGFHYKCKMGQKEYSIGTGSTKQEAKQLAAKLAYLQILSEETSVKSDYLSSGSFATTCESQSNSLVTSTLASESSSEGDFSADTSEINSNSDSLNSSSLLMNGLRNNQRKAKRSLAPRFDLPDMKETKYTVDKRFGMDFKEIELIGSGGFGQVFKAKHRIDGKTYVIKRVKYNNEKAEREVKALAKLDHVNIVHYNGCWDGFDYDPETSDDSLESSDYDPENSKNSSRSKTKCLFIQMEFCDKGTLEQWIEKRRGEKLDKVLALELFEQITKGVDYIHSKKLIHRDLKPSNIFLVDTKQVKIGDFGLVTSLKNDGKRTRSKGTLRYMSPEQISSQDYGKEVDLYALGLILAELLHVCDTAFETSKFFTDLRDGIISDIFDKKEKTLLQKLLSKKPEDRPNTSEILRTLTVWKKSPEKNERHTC

[3] = biological target: Serine/threonine-protein kinase 38 (Homo sapiens) (UniProt Q15208); settings: at 10 µM
Serine/threonine-protein kinase 38 (Homo sapiens), sequence (Q15208 2-465 limits assumed): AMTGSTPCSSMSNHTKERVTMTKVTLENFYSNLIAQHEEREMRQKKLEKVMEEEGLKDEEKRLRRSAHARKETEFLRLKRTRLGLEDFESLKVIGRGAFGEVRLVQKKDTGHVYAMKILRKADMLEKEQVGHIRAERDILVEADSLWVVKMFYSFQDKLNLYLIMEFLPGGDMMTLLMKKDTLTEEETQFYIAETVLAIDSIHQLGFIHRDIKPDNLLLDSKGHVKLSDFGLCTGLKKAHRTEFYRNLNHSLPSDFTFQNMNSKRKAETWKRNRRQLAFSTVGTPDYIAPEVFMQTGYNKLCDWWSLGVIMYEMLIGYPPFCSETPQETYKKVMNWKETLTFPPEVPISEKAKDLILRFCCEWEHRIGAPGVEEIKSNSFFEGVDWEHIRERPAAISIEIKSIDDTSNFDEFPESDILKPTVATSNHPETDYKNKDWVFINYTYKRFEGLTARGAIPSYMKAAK

[4] = biological target: Homeodomain-interacting protein kinase 2 (Homo sapiens, UniProt Q9H2X6); assay: Selectivity interaction (KinomeScan (DiscoverX)) EUB0000607a HIPK2; settings: at 10 µM
Homeodomain-interacting protein kinase 2, sequence (Q9H2X6 whole entry, looked up): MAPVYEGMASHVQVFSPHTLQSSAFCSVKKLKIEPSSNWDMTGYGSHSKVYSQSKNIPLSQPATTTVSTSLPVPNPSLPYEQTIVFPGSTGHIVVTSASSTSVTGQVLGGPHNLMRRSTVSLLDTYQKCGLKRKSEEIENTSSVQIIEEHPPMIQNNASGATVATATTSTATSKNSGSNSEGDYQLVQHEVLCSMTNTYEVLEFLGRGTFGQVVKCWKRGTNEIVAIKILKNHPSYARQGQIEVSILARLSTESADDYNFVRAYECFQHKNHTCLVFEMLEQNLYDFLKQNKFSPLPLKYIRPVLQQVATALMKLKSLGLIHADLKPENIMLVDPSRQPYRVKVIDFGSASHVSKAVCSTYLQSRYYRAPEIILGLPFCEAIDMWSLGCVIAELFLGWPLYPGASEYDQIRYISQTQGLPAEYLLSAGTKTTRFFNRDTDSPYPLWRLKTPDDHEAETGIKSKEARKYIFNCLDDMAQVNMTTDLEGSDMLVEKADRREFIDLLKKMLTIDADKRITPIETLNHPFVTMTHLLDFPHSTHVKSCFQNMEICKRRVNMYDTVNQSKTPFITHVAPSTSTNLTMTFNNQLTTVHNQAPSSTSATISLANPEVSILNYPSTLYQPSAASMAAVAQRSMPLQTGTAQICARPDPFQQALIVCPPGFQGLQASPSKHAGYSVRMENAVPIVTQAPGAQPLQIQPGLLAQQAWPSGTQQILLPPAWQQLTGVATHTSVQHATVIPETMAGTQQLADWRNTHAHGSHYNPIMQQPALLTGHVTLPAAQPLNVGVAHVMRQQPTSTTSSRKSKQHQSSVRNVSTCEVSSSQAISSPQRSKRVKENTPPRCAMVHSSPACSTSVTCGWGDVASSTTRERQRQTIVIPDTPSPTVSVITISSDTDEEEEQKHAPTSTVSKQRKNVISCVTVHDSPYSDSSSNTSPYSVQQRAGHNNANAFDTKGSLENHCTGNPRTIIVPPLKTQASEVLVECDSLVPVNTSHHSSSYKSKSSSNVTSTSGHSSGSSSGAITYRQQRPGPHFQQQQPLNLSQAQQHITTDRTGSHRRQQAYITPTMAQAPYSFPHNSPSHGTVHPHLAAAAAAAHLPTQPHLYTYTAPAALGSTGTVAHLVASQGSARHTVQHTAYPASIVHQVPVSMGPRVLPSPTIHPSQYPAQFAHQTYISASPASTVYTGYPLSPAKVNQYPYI

[5] = biological target: Fibroblast growth factor receptor 1 (Homo sapiens, UniProt P11362); assay: Selectivity interaction (KinomeScan (DiscoverX)) EUB0000695a FGFR1; settings: at 100 nM
Fibroblast growth factor receptor 1, sequence (P11362 22-822 limits assumed): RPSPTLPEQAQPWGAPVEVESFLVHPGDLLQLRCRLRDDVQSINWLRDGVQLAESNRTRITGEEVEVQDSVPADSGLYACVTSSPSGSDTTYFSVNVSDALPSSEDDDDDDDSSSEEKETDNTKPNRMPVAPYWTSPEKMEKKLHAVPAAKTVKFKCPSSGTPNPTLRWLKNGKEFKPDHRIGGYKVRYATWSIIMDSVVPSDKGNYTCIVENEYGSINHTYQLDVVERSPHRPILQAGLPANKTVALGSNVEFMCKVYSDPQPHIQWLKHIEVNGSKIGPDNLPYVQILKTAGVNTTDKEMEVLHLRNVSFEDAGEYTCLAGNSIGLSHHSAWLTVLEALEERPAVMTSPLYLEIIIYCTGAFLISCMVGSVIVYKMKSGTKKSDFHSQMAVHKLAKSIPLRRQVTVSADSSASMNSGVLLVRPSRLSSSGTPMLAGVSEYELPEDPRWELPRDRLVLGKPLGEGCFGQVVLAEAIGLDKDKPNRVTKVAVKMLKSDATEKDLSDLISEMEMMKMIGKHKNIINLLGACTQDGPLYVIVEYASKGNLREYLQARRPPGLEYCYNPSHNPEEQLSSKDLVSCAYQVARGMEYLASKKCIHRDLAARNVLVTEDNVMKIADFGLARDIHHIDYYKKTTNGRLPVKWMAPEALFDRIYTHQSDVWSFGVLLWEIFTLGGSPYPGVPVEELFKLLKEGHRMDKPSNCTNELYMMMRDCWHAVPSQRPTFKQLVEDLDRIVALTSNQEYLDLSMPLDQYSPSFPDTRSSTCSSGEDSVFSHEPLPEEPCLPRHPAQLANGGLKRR

[6] = biological target: T2, Serine/threonine-protein kinase ULK2 (Homo sapiens) (UniProt Q8IYT8); assay: Selectivity interaction (KinomeScan (DiscoverX)) EUB0000045b ULK2
T2 sequence (whole entry): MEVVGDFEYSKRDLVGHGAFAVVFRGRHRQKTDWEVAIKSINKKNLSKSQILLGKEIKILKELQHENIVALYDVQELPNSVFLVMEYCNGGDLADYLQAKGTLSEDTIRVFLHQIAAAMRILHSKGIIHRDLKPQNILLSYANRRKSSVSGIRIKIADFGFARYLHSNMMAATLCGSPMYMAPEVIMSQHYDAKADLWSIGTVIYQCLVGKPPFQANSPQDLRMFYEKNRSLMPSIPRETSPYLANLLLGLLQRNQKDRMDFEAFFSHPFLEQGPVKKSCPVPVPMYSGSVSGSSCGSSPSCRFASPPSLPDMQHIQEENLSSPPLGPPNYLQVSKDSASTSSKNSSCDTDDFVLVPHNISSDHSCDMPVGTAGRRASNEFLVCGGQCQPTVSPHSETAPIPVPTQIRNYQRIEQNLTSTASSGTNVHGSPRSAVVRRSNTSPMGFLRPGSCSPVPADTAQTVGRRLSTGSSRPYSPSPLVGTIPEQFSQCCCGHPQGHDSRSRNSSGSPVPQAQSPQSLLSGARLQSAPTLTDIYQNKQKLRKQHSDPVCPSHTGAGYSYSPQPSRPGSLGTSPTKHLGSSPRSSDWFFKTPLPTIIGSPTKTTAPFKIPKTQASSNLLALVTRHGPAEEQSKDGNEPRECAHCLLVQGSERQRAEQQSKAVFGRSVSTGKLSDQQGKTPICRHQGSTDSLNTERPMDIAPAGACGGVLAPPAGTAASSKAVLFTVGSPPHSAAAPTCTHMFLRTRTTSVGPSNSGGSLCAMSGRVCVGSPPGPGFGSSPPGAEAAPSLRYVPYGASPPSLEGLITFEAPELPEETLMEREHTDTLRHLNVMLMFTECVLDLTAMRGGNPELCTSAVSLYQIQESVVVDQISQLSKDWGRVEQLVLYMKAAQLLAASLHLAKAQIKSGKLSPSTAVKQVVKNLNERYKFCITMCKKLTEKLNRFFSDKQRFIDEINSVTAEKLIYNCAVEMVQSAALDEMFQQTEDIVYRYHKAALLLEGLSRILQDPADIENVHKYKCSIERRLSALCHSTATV

[7] = biological target: T3, Phosphatidylinositol 4,5-bisphosphate 3-kinase catalytic subunit delta isoform (Homo sapiens) (UniProt O00329); assay: Selectivity interaction (KinomeScan (DiscoverX)) EUB0001619a PIK3CD; settings: at 1 µM
T3 sequence (whole entry): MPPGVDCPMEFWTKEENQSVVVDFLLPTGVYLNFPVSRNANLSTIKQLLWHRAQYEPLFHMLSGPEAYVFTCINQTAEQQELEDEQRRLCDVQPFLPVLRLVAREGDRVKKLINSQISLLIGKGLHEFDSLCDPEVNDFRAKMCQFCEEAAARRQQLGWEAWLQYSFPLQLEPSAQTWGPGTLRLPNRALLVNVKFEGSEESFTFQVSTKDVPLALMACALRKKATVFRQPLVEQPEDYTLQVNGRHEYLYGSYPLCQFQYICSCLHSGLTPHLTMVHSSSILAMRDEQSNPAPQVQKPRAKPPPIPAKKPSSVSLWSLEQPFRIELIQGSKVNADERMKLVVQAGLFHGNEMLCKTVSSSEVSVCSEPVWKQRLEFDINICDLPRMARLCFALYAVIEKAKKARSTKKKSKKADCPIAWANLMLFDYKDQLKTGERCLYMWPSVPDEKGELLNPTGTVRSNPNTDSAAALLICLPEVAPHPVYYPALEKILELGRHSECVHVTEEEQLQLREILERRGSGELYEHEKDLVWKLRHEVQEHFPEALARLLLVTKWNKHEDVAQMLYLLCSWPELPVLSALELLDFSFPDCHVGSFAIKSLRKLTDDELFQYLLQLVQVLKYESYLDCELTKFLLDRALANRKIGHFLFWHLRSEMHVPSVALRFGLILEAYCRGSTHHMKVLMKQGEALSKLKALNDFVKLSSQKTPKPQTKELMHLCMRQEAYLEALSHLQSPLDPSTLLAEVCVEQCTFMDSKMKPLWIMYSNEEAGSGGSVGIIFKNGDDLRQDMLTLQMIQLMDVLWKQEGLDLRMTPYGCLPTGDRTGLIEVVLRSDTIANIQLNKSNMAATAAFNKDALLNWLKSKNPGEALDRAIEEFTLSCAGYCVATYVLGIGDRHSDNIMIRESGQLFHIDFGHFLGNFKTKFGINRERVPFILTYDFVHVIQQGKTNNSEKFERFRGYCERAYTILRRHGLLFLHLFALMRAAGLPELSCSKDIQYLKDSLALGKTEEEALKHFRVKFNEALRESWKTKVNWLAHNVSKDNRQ

## CN(C)CCOc1ccc(-c2nc(-c3ccncc3)c(-c3ccc4c(c3)CC/C4=N\O)[nH]2)cc1
[1]
  % of control: 80%

## C=CC(=O)Nc1ccc(C(=O)Nc2[nH]nc3c2CN(C(=O)N[C@H](CN(C)C)c2ccccc2)C3(C)C)cc1
[2]
  % of engagement: -0.6%

## Cc1cc([C@@H](C)Nc2ccccc2C(=O)O)c2nc(N3CCOCC3)cc(=O)n2c1 [AZD-6482]
[3]
  % of control: 100%

## CNC(=O)Nc1ccc(-c2nc(N3CC4CCC(C3)O4)c3cnn(C4CCC5(CC4)OCCO5)c3n2)cc1
[4]
  % of control: 100%

## Cc1cc(F)c(C(=O)Nc2cccc(-c3nncn3C(C)C)n2)cc1-n1cnc(C2CC2)c1
[5]
  % of control: 100%

## C=CC(=O)Nc1cc(-n2c(=O)ccc3cnc4ccc(-c5ccc(NS(C)(=O)=O)cc5)cc4c32)ccc1C
[6]; at 1 µM
  % of control: 100%
[6]; at 10 µM
  % of control: 92%

## N#Cc1cccc(-c2c[nH]c3ncnc(N4CCOCC4)c23)c1
[7]
  % of control: 100%
